The NIST ThermoML archive (doi:10.1016/j.jct.2017.12.021)
Where a name gives a salt, the structure may show the parent alone. Numbers after ± are expanded uncertainties.

Settings: 101.33 kPa, Liquid; for viscosity: Capillary tube (Ostwald / Ubbelohde) method; for mass density: Pycnometric method

Structure (SMILES) | viscosity (293.15 K) [mPa·s] | mass density (293.15 K) [kg/m3] | viscosity (298.15 K) [mPa·s] | mass density (298.15 K) [kg/m3] | viscosity (303.15 K) [mPa·s] | mass density (303.15 K) [kg/m3] | viscosity (308.15 K) [mPa·s] | mass density (308.15 K) [kg/m3] | viscosity (313.15 K) [mPa·s] | mass density (313.15 K) [kg/m3] | viscosity (318.15 K) [mPa·s] | mass density (318.15 K) [kg/m3] | viscosity (323.15 K) [mPa·s] | mass density (323.15 K) [kg/m3] | viscosity (328.15 K) [mPa·s] | mass density (328.15 K) [kg/m3] | viscosity (333.15 K) [mPa·s] | mass density (333.15 K) [kg/m3] | viscosity (338.15 K) [mPa·s] | mass density (338.15 K) [kg/m3]
CC(=O)OCC(COC(C)=O)OC(C)=O [glyceryl triethanoate] | 21.48 ± 2.2 | 1158.3 ± 4.7 | 16.36 ± 1.6 | 1152.9 ± 4.7 | 12.5 ± 1.3 | 1147.4 ± 4.7 | 9.95 ± 1 | 1142 ± 4.6 | 8.21 ± 0.82 | 1136.6 ± 4.6 | 6.75 ± 0.68 | 1131.1 ± 4.6 | 5.66 ± 0.57 | 1125.7 ± 4.6 | 4.82 ± 0.48 | 1120.2 ± 4.6 | 4.18 ± 0.42 | 1114.8 ± 4.5 | 3.67 ± 0.37 | 1109.4 ± 4.5
CCOC(=O)CC(CC(=O)OCC)(OC(C)=O)C(=O)OCC [triethyl acetyl citrate] |  | 1142.1 ± 5.2 | 46.55 ± 4.7 | 1137.5 ± 5.2 | 34.56 ± 3.5 | 1133.1 ± 5.2 | 25.1 ± 2.6 | 1127.6 ± 5.1 | 17.52 ± 1.8 | 1124.1 ± 5.1 | 13.81 ± 1.4 | 1118.5 ± 5.1 | 10.95 ± 1.1 | 1115.1 ± 5.1 | 8.86 ± 0.9 | 1110.1 ± 5.1 | 7.98 ± 0.81 | 1105.4 ± 5 | 7.02 ± 0.71 | 1100.5 ± 5
CCOC(=O)CC(O)(CC(=O)OCC)C(=O)OCC [triethyl citrate] | 44.12 ± 4.4 | 1138.4 ± 4.7 | 32.1 ± 3.2 | 1134.5 ± 4.7 | 20.79 ± 2.1 | 1131.1 ± 4.7 | 16.55 ± 1.7 | 1126.2 ± 4.7 | 13.18 ± 1.3 | 1122.4 ± 4.7 | 10.24 ± 1 | 1116.5 ± 4.6 | 8.62 ± 0.87 | 1112.1 ± 4.6 | 7.23 ± 0.73 | 1106.6 ± 4.6 | 6.41 ± 0.65 | 1102.8 ± 4.6 | 5.71 ± 0.57 | 1097.3 ± 4.6
CCCCOC(=O)C(C)O (centres undefined) [butyl 2-hydroxypropanoate] | 3.87 ± 0.39 | 981.5 ± 4 | 3.26 ± 0.33 | 977 ± 4 | 2.81 ± 0.28 | 973.1 ± 4 | 2.42 ± 0.24 | 968.4 ± 4 | 2.15 ± 0.22 | 963.5 ± 4 | 1.9 ± 0.19 | 958.5 ± 3.9 | 1.69 ± 0.17 | 953.9 ± 3.9 | 1.55 ± 0.16 | 948.9 ± 3.9 | 1.43 ± 0.14 | 944.1 ± 3.9 | 1.3 ± 0.13 | 940.1 ± 3.9
